According to article PMC12124721, “Impact of Fluorine Pattern on Lipophilicity and Acid–Base Properties of 2‑(Thiofluoroalkyl)pyridines: Insights from Experiments and Statistical Modeling” (Journal of Medicinal Chemistry, 2025):
Values joined by “and” are separate entries in the source; they are usually repeats but may differ in a detail not shown here. Identical values can stand only once. “Also recorded” adds a separate entry of the source. Each block holds one molecule with its values, some of them ahead of it.

Key:
[1] = pKa of conjugate acid by 1H NMR titration (nonfluorinated analogues); type: physicochemical; conditions: aqueous solutions of different pH, conjugate acid (pyridinium), water
Experimental: (§1) The measurements were conducted on the corresponding conjugate acids of the thiofluoroalkylpyridines using an ^19F NMR method developed by Leito and coworkers. For nonfluorinated analogues, pK a was determined by an analogous method using ^1H NMR. […] Likewise, internal difluorination of the thioethyl group led to a more acidic pyridinium (9, pK a 2.05) compared to terminal difluorination (6, pK a 2.43). […] Computationally, it is straightforward to determine pK a values for molecular organic systems, obtaining quantitative predictions via fitting to experimental data (Table S12).
A protocol developed by the group of Leito was followed for the determination of the […] of fluorinated 2-substituted pyridines using ^19F NMR. […] Next, the tube was caped and shaken vigorously, and the pH of the resulting solution was measured inside the tube with a pH meter with an NMR-tube probe. […] Next, a standard ^19F NMR experiment was recorded to determine the chemical shifts of the external standard and the sample of interest. […] The battery of NMR samples at different pH values was measured. • Data processing: using MestReNova NMR software, the chemical shifts of the pyridines were determined. […] Next, the selected signal for each pyridine was plotted against the pH of the measured solution. […]

[2] = logD7.4 by shake-flask HPLC-UV for nonfluorinated pyridines; type: physicochemical; conditions: for logD: 1-octanol/phosphate buffer, pH 7.4, 1-octanol/phosphate buffer pH 7.4, HPLC-UV; for logD / logD7.4: nonfluorinated pyridines, mean of three; for logD7.4: 1-octanol/phosphate buffer pH 7.4, HPLC-UV; for logD (single sample A, B, C): Table S2, individual HPLC-UV partitionings at different buffer:octanol volume ratios, pH 7.4
Experimental: A protocol described by Ràfols and coworkers was followed for the determination of the log D ^7.4 values of the nonfluorinated pyridines. The 4-step process was replicated three times for each compound: • Stocksolution preparation: in a 12 mL vial, 15 mg of the pyridine was charged. Then, 6 mL of phosphate buffer at pH 7.4 was added, and the mixture was vigorously shaken for 2 h. An aliquot of this stock solution was measured by HPLC-UV. • Partitioning: three partitioning experiments were carried out for each compound. To prepare an experiment, in a vial containing a magnetic stir bar, a known amount of the stock solution was introduced, followed by another known amount of 1-octanol. Next, the biphasic mixture was stirred for 2 h and left to stand overnight to allow phase partition. For the selection of the different volume ratios, it was followed reported recommendations, although 1:1, 10:1, and 1:10 octanol:stock solutions were usually employed. • Sample preparation and measurement: to prepare the sample, 0.1 mL of the aqueous phase was taken and introduced in a 2 mL vial, following the precautions described in the previous section. The samples were then analyzed with the same HPLC-UV method as that of the stock solution. The log D ^7.4 value was obtaining by comparing the initial amount of pyridine in the aqueous phase before and after partitioning, taking into consideration the volume rates.

[3] = logD7.4 by 19F NMR shake-flask partitioning (Linclau method); type: physicochemical; conditions: for logD: 1-octanol/phosphate buffer; for logD (single replicate): Table S1, individual 19F NMR partitioning experiments
Experimental: LogD ^7.4 (pH 7.4) measurements of the 2-(thiofluoroalkyl)-pyridines were conducted according to a method developed by Linclau and coworkers, a variation on the traditional “shake-flask” partitioning between octanol and water. Together with a fluorinated internal standard of known lipophilicity, simple ^19F NMR experiments allowed for the calculation of the logD ^7.4 value of the compound of interest through integration of NMR signals in each phase. During our experiments, no difference between logD ^7.4 and logP values was observed, probably due to the low basicity of the pyridines. Nonetheless, for the sake of consistency, logD ^7.4 was deemed the appropriate parameter for evaluating lipophilicity.
A protocol developed by the group of Linclau was followed for the determination of the log D ^7.4 values of the 2-substituted pyridines. The 4-step process was replicated three times for each compound: • Partitioning: to a 10 mL pear-shaped flask were added 2 mL of 1-octanol, 2-substituted pyridine (1–10 mg), trifluoroethanol (5 μL), and 2 mL of phosphate buffer (pH 7.4). The resulting mixture was stirred at 25 °C for 2 h by controlling the temperature by an immersion cooler, and then, it was left to stand at 25 °C overnight to enable complete phase separation. • Sample preparation: using a 1 mL disposable syringe, an aliquot of 0.6 mL was carefully taken from the aqueous or the 1-octanol phase. Next, the needle was carefully wiped with a dry tissue, and the aliquot was placed into an NMR tube, followed by addition of 0.1 mL of acetone-d 6. The NMR tubes were sealed using a rubber septum stopper and shaken to obtain a homogeneous solution for NMR measurement. When taking an aliquot of the lower water phase, to avoid the contamination of the syringe with the upper octanol phase, 0.05 mL of air was taken into the syringe before putting the needle into the solution, and while immersing it through the upper octanol layer, the air was gently pushed out. Upon reaching the water phase, all air bubbles are pushed out of the syringe, the aliquot is taken, and the needle is quickly removed from the solution. Then, a small amount of the water phase was discarded to ensure all traces of octanol are out of the needle, leaving a 0.6 mL sample in the syringe. • NMR measurement: fluorine (^19F{1H} NMR) nuclear magnetic resonance spectra were recorded on a Varian Mercury spectrometer or Bruker Avance Ultrashield (376.5 MHz for ^19F NMR). Parameters used in the determination of lipophilicities were obtained from the experiments carried out by Linclau and coworkers. First, the sealed tube was inserted to the NMR spectrometer, and following automatic locking and gradient shimming, a simple ^19F spectrum was recorded on the nonspinning sample to assess the required spectral width (SW) and frequency offset point (O1P). The O1P is centered between the two diagnostic F signals, and the spectral width (SW) is left at 200 ppm (it can be reduced if a better S/N ratio is required). Then, the 90° pulse was measured with the automated pulsecal routine obtaining a power (PW) of 16 μs. The measured 90° pulse, SW, and O1P were transferred into the inversion–recovery experiment. For practical purposes, it is recommended to use a D1 of 30 s for the octanol sample and of 60 s for the water sample as pulse delay, given the D1 value should be greater than 5*T1 for quantitative integration. The number of transients (NS) is selected for each sample to afford a suitable signal-to-noise ratio (SNR should be >250). • Data processing:data were processed using Mestre Nova NMR software. The obtained FID file was reprocessed using the following conditions: WFunction (LB = 2, exponential), zero filling (increasing points from 65,536 to 262,144) and then Fourier transform, followed by phasing with mouse and auto baseline correction. The integration ratio was obtained by manual integration.

[4] = pKa of conjugate acid by 19F NMR titration (Leito method); type: physicochemical; conditions: aqueous solutions of different pH, conjugate acid (pyridinium), water
Experimental: as §1
A protocol developed by the group of Leito was followed for the determination of the […] of fluorinated 2-substituted pyridines using ^19F NMR. […] Next, the tube was caped and shaken vigorously, and the pH of the resulting solution was measured inside the tube with a pH meter with an NMR-tube probe. This procedure was repeated for all of the aqueous solutions to have a battery of NMR tubes at different pH values. If needed, additional solutions were prepared to ensure a continuum of pH values. • Sample measurement: for ^19F NMR measurements, a 3 mm NMR tube containing a solution of 8 mg of KF in 1 mL of D2O was inserted into the NMR tube of interest to serve as an external standard. Next, a standard ^19F NMR experiment was recorded to determine the chemical shifts of the external standard and the sample of interest. For the ^1H method, the same protocol was applied by changing the external standard for 5 μL of trifluoroethanol instead of KF. The battery of NMR samples at different pH values was measured. • Data processing: using MestReNova NMR software, the chemical shifts of the pyridines were determined. For ^19F NMR experiments, the KF reference was set to −125.00 ppm, and the closest ^19F signal of the pyridine was chosen for the chemical shift determination. For ^1H NMR experiments, the trifluoroethanol reference (CF3CH2OH) was set to 3.14 ppm, and the methyl signals of the nonfluorinated pyridines were chosen for the chemical shift determination. Next, the selected signal for each pyridine was plotted against the pH of the measured solution. Using Prism GraphPad software, a sigmoidal curve was adjusted, and the second derivate was performed to obtain the pK a value of the given pyridine.

[5] = stability in aqueous media during logD measurement; type: physicochemical; conditions: during logD7.4 measurement period
Excerpt: The computational model can also be employed to predict the lipophilicity of experimentally undetermined compounds such as pyridines 21 and 22 (Figure ).

[6] = parameters: method as in earlier work; conditions: thiofluoroalkyl benzenes; logP (=logD7.4) measured indirectly by HPLC retention times; ref 36 (SI), O'Hagan group; cited from earlier work
[7] = pH 7.4, 1-octanol/phosphate buffer pH 7.4, 25 °C, trifluoroethanol reference, 19F NMR, mean of three, read-out: logD7.4
[8] = pH 7.4, Table S1, individual 19F NMR partitioning experiments, pH 7.4, read-out: logD (single replicate)

SMILES: CS(=O)(=O)c1ccccn1 [Compound 10, 2-(Methylsulfonyl)pyridine]
logD [2]: -0.43
logD (single sample A, B, C) [2]: -0,407 and -0,414 and -0,469

SMILES: O=S(=O)(c1ccccn1)C(F)(F)F [Compound 13, 2-((Trifluoromethyl)sulfonyl)pyridine]
logD [3, 7]: 1.43

SMILES: O=S(=O)(CCF)c1ccccn1 [Compound 14, 2-((2-Fluoroethyl)sulfonyl)pyridine]
logD [3, 7]: -0.21
logD (single replicate) ([3]; pH 7.4): -0,199 and -0,158 and -0,274

SMILES: CCS(=O)(=O)c1ccccn1 [Compound 15, 2-(Ethylsulfonyl)pyridine]
logD7.4 [2]: -0,07
logD [2]: -0.07
logD (single sample A, B, C) [2]: -0,032 and -0,070 and -0,118

SMILES: O=S(=O)(CC(F)(F)F)c1ccccn1 [Compound 18, 2-((2,2,2-Trifluoroethyl)sulfonyl)pyridine]
logD [3, 7]: 0.81
logD [3, 8]: 0.813
logD (single replicate) ([3]; pH 7.4): 0,802 and 0,803

SMILES: O=S(=O)(c1ccccn1)C(F)(F)C(F)(F)F [Compound 20, 2-((Perfluoroethyl)sulfonyl)pyridine]
logD [3, 7]: 2.21

SMILES: CC(F)(F)Sc1ccccc1 [SCF2CH3 Ph]
logD7.4 (Ph) [6]: 3.38

SMILES: FC(F)(F)Sc1ccccc1 [SCF3 Ph]
logD7.4 (Ph) [6]: 3.70

SMILES: FC(F)(F)CSc1ccccc1 [SCH2CF3 Ph]
logD7.4 (Ph) [6]: 3.30

SMILES: CCSc1ccccc1 [SCH2CH3 Ph]
logD7.4 (Ph) [6]: 3.42

SMILES: CSc1ccccc1 [SCH3 Ph]
logD7.4 (Ph) [6]: 2.87

Second part, led by results:

pKa [1]: 3.69
logD [2]: 1.69
SMILES: CSc1ccccn1 [Compound 1, 2-(methylthio)pyridine]

logD [3, 7]: 1.95
pKa [4]: 1.7
SMILES: FC(F)Sc1ccccn1 [Compound 2, 2-((Difluoromethyl)thio)pyridine]

logD [3, 7]: 2.13
pKa [4]: 0.97
SMILES: FC(F)(F)Sc1ccccn1 [Compound 3, 2-((Trifluoromethyl)thio)pyridine]

logD7.4 ([3]; 1-octanol/phosphate buffer pH 7.4, 25 °C, trifluoroethanol reference, 19F NMR, mean of three): 1.84
logD [3, 7]: 1.82
pKa [4]: 2.05
SMILES: CC(F)(F)Sc1ccccn1 [Compound 4, 2-((1,1-Difluoroethyl)thio)pyridine]

pKa [1]: 3.68
logD7.4 [2]: 2,26
logD [2]: 2.26
SMILES: CCSc1ccccn1 [Compound 5, 2-(Ethylthio)pyridine]

logD [3, 7]: 2.26
pKa [4]: 2.43
SMILES: FC(F)CSc1ccccn1 [Compound 6, 2-((2,2-Difluoroethyl)thio)pyridine]

logD [3, 7]: 2.27
pKa [4]: 1.33
SMILES: FC(F)C(F)(F)Sc1ccccn1 [Compound 7, 2-((1,1,2,2-Tetrafluoroethyl)thio)pyridine]

logD [3, 7]: 2.71
pKa [4]: 1.49
SMILES: FC(F)(F)CSc1ccccn1 [Compound 8, 2-((2,2,2-Trifluoroethyl)thio)pyridine]

logD [3, 7]: 2.76
pKa [4]: 0.94
SMILES: FC(F)(F)C(F)(F)Sc1ccccn1 [Compound 9, 2-((Perfluoroethyl)thio)pyridine]

logD [3, 7]: 0.1
logD [3, 8]: 0.093
logD (single replicate) ([3]; pH 7.4): 0,112 and 0,084
SMILES: O=S(=O)(CF)c1ccccn1 [Compound 11, 2-((Fluoromethyl)sulfonyl)pyridine]

logD [3, 7]: 0.55
logD [3, 8]: 0.576
logD (single replicate) ([3]; pH 7.4): 0,541 and 0,538
SMILES: O=S(=O)(c1ccccn1)C(F)F [Compound 12, 2-((Difluoromethyl)sulfonyl)pyridine]

logD [3, 7]: 0.31
logD [3, 8]: 0.304
logD (single replicate) ([3]; pH 7.4): 0,315 and 0,309
SMILES: O=S(=O)(CC(F)F)c1ccccn1 [Compound 16, 2-((2,2-Difluoroethyl)sulfonyl)pyridine]

logD [3, 7]: 0.79
logD [3, 8]: 0.786
logD (single replicate) ([3]; pH 7.4): 0,784 and 0,794
SMILES: CC(F)(F)S(=O)(=O)c1ccccn1 [Compound 17, 2-((1,1-Difluoroethyl)sulfonyl)pyridine]

logD [3, 7]: 1.43
SMILES: O=S(=O)(c1ccccn1)C(F)(F)C(F)F [Compound 19, 2-((1,1,2,2-Tetrafluoroethyl)sulfonyl)pyridine]

pKa [4]: 2.43
SMILES: FCSc1ccccn1 [Compound 21, 2-((Fluoromethyl)thio)pyridine]
stability in aqueous media [5]: decomposes in water; also recorded: decomposed in aqueous media; also recorded: water-unstable

pKa [4]: 3.08
SMILES: FCCSc1ccccn1 [Compound 22]
stability in aqueous media [5]: decomposes in water; also recorded: decomposed in aqueous media; also recorded: water-unstable
